From US11464770B2, “Anticancer pharmaceutical composition” (NATIONAL CANCER CENTER, priority 2016, dated 2022)
Where two headings read alike, the source gives them in different places.

Tests used:
[1] = tested on: lung cancer cell lines (e.g. NCI-H23, NCI-H1229); assay: Cell based assay, cell viability (CellTiter-Glo), lung cancer cell lines; conditions: Homo sapiens
How it was run: (§1)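 ATP content as viability surrogate, luminescent read; 72 h compound, 0–2 μM final; cells plated 24 h prior.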

[2] = tested on: cervical carcinoma cell lines; assay: Cell based assay, cell viability (CellTiter-Glo), cervical carcinoma cell lines; conditions: Homo sapiens; HeLa cells
[3] = tested on: RT4: human urinary bladder transitional cell papilloma; assay: Cell based assay, cytotoxicity in RT4 papilloma cells (selectivity); conditions: Homo sapiens, RT-4; RT4 cells
[4] = tested on: ovarian cancer cell lines; assay: Cell based assay, cell viability (CellTiter-Glo), ovarian cancer cell lines; conditions: Homo sapiens; OVCAR-3 cells
How it was run: as §1

[5] = A549 cells, 72 hours treatment, CellTiter-Glo, read-out: IC50, lung cancer cell line A549
[6] = DMS 114 cells, 72 hours treatment, CellTiter-Glo, read-out: IC50, lung cancer cell line DMS 114
[7] = MRC-5 cells, 72 hours treatment, CellTiter-Glo, read-out: IC50
[8] = NCI-H23 cells, 72 hours treatment, CellTiter-Glo, read-out: IC50, lung cancer cell line NCI-H23
[9] = NCI-H460 cells, 72 hours treatment, CellTiter-Glo, read-out: IC50, lung cancer cell line NCI-H460
[10] = NCI-H522 cells, 72 hours treatment, CellTiter-Glo, read-out: IC50, lung cancer cell line NCI-H522
[11] = NCI-H1299 cells, 72 hours treatment, CellTiter-Glo, read-out: IC50, lung cancer cell line NCI-H1299
[12] = NCI-H1437 cells, 72 hours treatment, CellTiter-Glo, read-out: IC50, lung cancer cell line NCI-H1437
[13] = Lung cancer cell line A549, 72 hours, cell viability (CellTiter-Glo), read-out: IC50, A549
[14] = Lung cancer cell line DMS 114, 72 hours, cell viability (CellTiter-Glo), read-out: IC50, DMS 114
[15] = Lung cancer cell line NCI-H23, 72 hours, cell viability (CellTiter-Glo), read-out: IC50, NCI-H23
[16] = Lung cancer cell line NCI-H460, 72 hours, cell viability (CellTiter-Glo), read-out: IC50, NCI-H460
[17] = Lung cancer cell line NCI-H522, 72 hours, cell viability (CellTiter-Glo), read-out: IC50, NCI-H522
[18] = Lung cancer cell line NCI-H1299, 72 hours, cell viability (CellTiter-Glo), read-out: IC50, NCI-H1299
[19] = Lung cancer cell line NCI-H1437, 72 hours, cell viability (CellTiter-Glo), read-out: IC50, NCI-H1437
[20] = MRC-5 (listed under Lung cancer cell line), 72 hours, cell viability (CellTiter-Glo), read-out: IC50, MRC-5

IC50 [1, 5] [nM]	IC50 [1, 6] [nM]	IC50 [1, 8] [nM]	IC50 [1, 9] [nM]	IC50 [1, 10] [nM]	IC50 [1, 11] [nM]	IC50 [1, 12] [nM]	IC50 [2] [nM]	IC50 [4] [nM]	IC50 [1, 13] [nM]	IC50 [1, 14] [nM]	IC50 [1, 15] [nM]	IC50 [1, 16] [nM]	IC50 [1, 17] [nM]	IC50 [1, 18] [nM]	IC50 [1, 19] [nM]	Compound	IC50 [1, 7] [nM]	IC50 [3] [nM]	IC50 [1, 20] [nM]
> 2000	> 2000	> 2000	> 2000	> 2000	> 2000	> 10000	> 10000	> 2000								O=C(c1ccccc1)c1c([S+]([O-])Cc2ccc(S(F)(F)(F)(F)F)cc2)[nH]c2c(F)ccc(F)c2c1=O (centres unmarked) [Compound 87, 3-benzoyl-5,8-difluoro-2-((4-(pentafluoro--sulfanyl)benzyl)sulfinyl)quinolin-4(1H)-one]	> 2000	> 10000	
> 2000	> 2000	> 2000	> 2000	> 2000	> 2000	> 10000	> 10000	> 2000								Cc1cc(C[S+]([O-])c2[nH]c3c(Cl)ccc(Cl)c3c(=O)c2C(=O)c2ccccc2)no1 (centres unmarked) [Compound 88, 3-benzoyl-5,8-dichloro-2-(((5-methylisoxazol-3-yl)methyl)sulfinyl)quinolin-4(1H)-one]	> 2000	> 10000	
> 2000	> 2000	> 2000	> 2000	> 2000	> 2000	> 10000	> 10000	> 2000								CC(=O)c1c([S+]([O-])CN2C(=O)c3ccccc3C2=O)[nH]c2c(Cl)ccc(Cl)c2c1=O (centres unmarked) [Compound 90, 2-(((3-acetyl-5,8-dichloro-4-oxo-1,4-dihydroquinolin-2-yl)sulfinyl)methyl)isoindoline-1,3-dione]	> 2000	> 10000	
> 2000	> 2000	1800	> 2000	> 2000	> 2000	> 10000	> 10000	1740								COC(=O)c1ccc(C[S+]([O-])c2[nH]c3c(Cl)ccc(Cl)c3c(=O)c2C(C)=O)cc1 (centres unmarked) [Compound 91, methyl 4-(((3-acetyl-5,8-dichloro-4-oxo-1,4-dihydroquinolin-2-yl)sulfinyl)methyl)benzoate]	> 2000	> 10000	
> 2000	> 2000	> 2000	> 2000	> 2000	> 2000	> 10000	> 10000	> 2000								COc1cccc2[nH]c(SCc3ccc(S(F)(F)(F)(F)F)cc3)c(C(C)=O)c(=O)c12 [Compound 92, 3-acetyl-5-methoxy-2-((4-(pentafluoro--sulfanyl)benzyl)thio)quinolin-4(1H)-one]	> 2000	> 10000	
> 2000	> 2000	> 2000	> 2000	> 2000	> 2000	> 10000	> 10000	> 2000								COc1cccc2[nH]c([S+]([O-])Cc3ccc(S(F)(F)(F)(F)F)cc3)c(C(C)=O)c(=O)c12 (centres unmarked) [Compound 93, 3-acetyl-5-methoxy-2-((4-(pentafluoro--sulfanyl)benzyl)sulfinyl)quinolin-4(1H)-one]	> 2000	> 10000	
> 2000	> 2000	2070	> 2000	> 2000	> 2000	> 10000	> 10000	1100								COc1cccc2[nH]c([S+]([O-])Cc3cc(C)on3)c(C(C)=O)c(=O)c12 (centres unmarked) [Compound 94, 3-acetyl-5-methoxy-2-(((5-methylisoxazol-3-yl)methyl)sulfinyl)quinolin-4(1H)-one]	> 2000	> 10000	
> 2000	> 2000	1340	> 2000	1820	1800	> 10000	> 2000	750								Cc1cc(C[S+]([O-])c2[nH]c3c(Br)ccc(Cl)c3c(=O)c2C(=O)C2CC2)no1 (centres unmarked) [Compound 96, 8-bromo-5-chloro-3-(cyclopropanecarbonyl)-2-(((5-methylisoxazol-3-yl)methyl)sulfinyl)quinolin-4(1H)-one]	1810	> 10000	
> 2000	> 2000	1090	1460	1320	1480	> 10000	> 2000	590								Cc1cc(C[S+]([O-])c2[nH]c3c(Cl)ccc(Cl)c3c(=O)c2C(=O)C2CC2)no1 (centres unmarked) [Compound 97, 5,8-dichloro-3-(cyclopropanecarbonyl)-2-(((5-methylisoxazol-3-yl)methyl)sulfinyl)quinolin-4(1H)-one]	1430	> 10000	
> 2000	> 2000	1640	1680	> 2000	1810	> 10000	> 2000	1230								CC(=O)c1c([S+]([O-])Cc2ccc(C#N)s2)[nH]c2c(Br)ccc(Cl)c2c1=O (centres unmarked) [Compound 98, 5-(((3-acetyl-8-bromo-5-chloro-4-oxo-1,4-dihydroquinolin-2-yl)sulfinyl)methyl)thiophene-2-carbonitrile]	> 2000	> 10000	
							> 2000	630	1290	> 2000	920	1180	1130	1060	> 10000	CC(=O)c1c([S+]([O-])Cc2ccc(-n3cccn3)nc2)[nH]c2c(Br)ccc(Cl)c2c1=O (centres unmarked) [Compound 99, 2-(((6-(1H-pyrazol-1-yl)pyridin-3-yl)methyl)sulfinyl)-3-acetyl-8-bromo-5-chloroquinolin-4(1H)-one]		> 10000	1130
							> 2000	> 2000	> 2000	> 2000	> 2000	> 2000	> 2000	> 2000	> 10000	CC(=O)c1c([S+]([O-])Cc2ccc(N)nc2)[nH]c2c(Br)ccc(Cl)c2c1=O (centres unmarked) [Compound 100, 3-acetyl-2-(((6-aminopyridin-3-yl)methyl)sulfinyl)-8-bromo-5-chloroquinolin-4(1H)-one]		> 10000	> 2000
							> 2000	1990	> 2000	> 2000	1330	> 2000	> 2000	> 2000	> 10000	O=C(c1c([S+]([O-])Cc2ccc(SC(F)(F)F)cc2)[nH]c2c(Br)ccc(Cl)c2c1=O)C1CC1 (centres unmarked) [Compound 101, 8-bromo-5-chloro-3-(cyclopropanecarbonyl)-2-((4-((trifluoromethyl)thio)benzyl)sulfinyl)quinolin-4(1H)-one]		> 10000	> 2000
							> 2000	930	1640	> 2000	1260	1440	1490	1110	> 10000	CC(=O)c1c([S+]([O-])Cc2ccc(C(F)(F)F)nc2C)[nH]c2c(Br)ccc(Cl)c2c1=O (centres unmarked) [Compound 102, 3-acetyl-8-bromo-5-chloro-2-(((2-methyl-6-(trifluoromethyl)pyridin-3-yl)methyl)sulfinyl)quinolin-4(1H)-one]		> 10000	1430
							> 2000	> 2000	> 2000	> 2000	> 2000	> 2000	> 2000	> 2000	> 10000	CC(=O)c1c([S+]([O-])Cc2ccc(NS(C)(=O)=O)cc2)[nH]c2c(Br)ccc(Cl)c2c1=O (centres unmarked) [Compound 103, N-(4-(((3-acetyl-8-bromo-5-chloro-4-oxo-1,4-dihydroquinolin-2-yl)sulfinyl)methyl)phenyl)methane-sulfonamide]		> 10000	> 2000
							> 2000	840	1680	> 2000	1270	1510	1410	1170	> 10000	CC(=O)c1c([S+]([O-])Cc2ccc(Cl)nc2)[nH]c2c(Br)ccc(Cl)c2c1=O (centres unmarked) [Compound 104, 3-acetyl-8-bromo-5-chloro-2-(((6-chloropyridin-3-yl)methyl)sulfinyl)quinolin-4(1H)-one]		> 10000	1620
							> 2000	> 2000	> 2000	> 2000	> 2000	> 2000	> 2000	> 2000	> 10000	COCCNc1ccc(C[S+]([O-])c2[nH]c3c(Br)ccc(Cl)c3c(=O)c2C(C)=O)cn1 (centres unmarked) [Compound 105, 3-acetyl-8-bromo-5-chloro-2-(((6-((2-methoxyethyl)amino)pyridin-3-yl)methyl)sulfinyl)quinolin-4(1H)-one]		> 10000	> 2000
							> 2000	> 2000	> 2000	> 2000	> 2000	> 2000	> 2000	> 2000	> 10000	CC(=O)c1c([S+]([O-])Cc2nonc2C)[nH]c2c(Br)ccc(Cl)c2c1=O (centres unmarked) [Compound 106, 3-acetyl-8-bromo-5-chloro-2-(((4-methyl-1,2,5-oxadiazol-3-yl)methyl)sulfinyl)quinolin-4(1H)-one]		> 10000	> 2000
							> 2000	> 2000	> 2000	> 2000	> 2000	> 2000	> 2000	> 2000	> 10000	CC(=O)c1c([S+]([O-])Cc2cnc3[nH]ccc3c2)[nH]c2c(Br)ccc(Cl)c2c1=O (centres unmarked) [Compound 107, 2-(((1H-pyrrolo[2,3-b]pyridin-5-yl)methyl)sulfinyl)-3-acetyl-8-bromo-5-chloroquinolin-4(1H)-one]		> 10000	> 2000
